Data reported in US20240148821A1, “PHARMACEUTICAL USE OF CYCLIC PEPTIDE COMPOUND” (CHUGAI SEIYAKU KABUSHIKI KAISHA, priority 2021, published 2024).
Numbered stars: 1 amine (or outer) side, 2 acyl side, 3 side chain; on linkers, the order of the positions; unused ones are H or OH. Bridge positions count the residues as written; N and C are the ends. Square brackets hold non-standard residues; d marks the D form. Peptide text beside a SMILES is read from it. * marks the point of attachment. hPhe(3-Cl-4-CF3) = N[C@@H](CCc1ccc(C(F)(F)F)c(Cl)c1)C(=O)O; hPhe(4-CF3) = N[C@@H](CCc1ccc(C(F)(F)F)cc1)C(=O)O; NMePhe(4-Cl) = CN[C@@H](Cc1ccc(Cl)cc1)C(=O)O; NMePhe(4-Me) = CN[C@@H](Cc1ccc(C)cc1)C(=O)O; NMedβ3hAla = C[C@H](CC(=O)[*:2])N(C)[*:1]; NMePhe(2-F) = CN[C@@H](Cc1ccccc1F)C(=O)O; hNle(7,7-F2) = N[C@@H](CCCCC(F)F)C(=O)O; NMeGly(cPent) = CN[C@H](C(=O)O)C1CCCC1; NMe3Pal = CN[C@@H](Cc1cccnc1)C(=O)O; NMeCha = CN[C@@H](CC1CCCCC1)C(=O)O; NMeCba = CN[C@@H](CC1CCC1)C(=O)O; NMeChg = CN[C@H](C(=O)O)C1CCCCC1; NMeF = CN[C@@H](Cc1ccccc1)C(=O)O; NMeI = CC[C@H](C)[C@H](NC)C(=O)O; NMeD = CN[C@@H](CC(=O)O)C(=O)O; NMeL = CN[C@@H](CC(C)C)C(=O)O; NMeV = CN[C@H](C(=O)O)C(C)C; d(β3hA) = C[C@@H](N)CC(=O)O; NMeA = CN[C@@H](C)C(=O)O; NMeAib = CNC(C)(C)C(=O)O; Piperidide = C1CCN(*)CC1; Ac5c = NC1(C(=O)O)CCCC1; Aze = O=C(O)[C@@H]1CCN1; Sar = CNCC(=O)O

What follows are compounds tested on Human pancreatic cancer cell line AsPC-1 (G12D mutation Kras) (assay: AsPC-1 cell growth inhibition (AsPC-1 CGI)). Conditions: read-out: AsPC-1 cell growth inhibition, 50% growth inhibitory concentration (IC50 value); 96 hours, CellTiter-Glo, values classified in ranges.
Assay type: cell-based
Description: Test compounds were serially dilated with dimethyl sulfoxide, and 200 nL was then dispensed to a U-bottom 96-well plate using Labcyte Echo. […] The cell suspension was dispensed to a. plate containing a test compound at 100 μL per well and incubated at 37° C. in a 5% carbon dioxide gas incubator. 96 hours later, 80 μL of CellTiter-Glo (Promega) was added to each well and fluorescence was measured.

| Structure (SMILES) | IC50 [nM] |
| --- | --- |
| CC[C@H](C)[C@@H]1NC(=O)[C@H](CC(C)C)N(C)C(=O)C[C@@H](C(=O)N(C)C)N(C)C(=O)[C@H](C2CCCC2)N(C)C(=O)C2(CCCC2)NC(=O)[C@H](Cc2ccccc2F)N(C)C(=O)[C@H](CCc2ccc(C(F)(F)F)c(Cl)c2)NC(=O)CN(C)C(=O)[C@H](CC2CCCCC2)N(C)C(=O)[C@@H]2CCN2C(=O)[C@H](C)N(C)C1=O [Compound 43] ([NMeL]I[NMeA][Aze][NMeCha][Sar][hPhe(3-Cl-4-CF3)][NMePhe(2-F)][Ac5c][NMeGly(cPent)][NMeD]-NMe2; lactam N-11) | > 500 |
| CC[C@H](C)[C@@H]1NC(=O)[C@H](CC(C)C)N(C)C(=O)C[C@@H](C)N(C)C(=O)[C@H](CC(C)C)NC(=O)C(C)(C)N(C)C(=O)[C@H](CC(C)C)NC(=O)[C@H](CCc2ccc(C(F)(F)F)c(Cl)c2)NC(=O)CN(C)C(=O)[C@H](CC2CCCCC2)N(C)C(=O)[C@@H]2CCN2C(=O)CN(C)C1=O [Compound 57] (cyclo([Aze][NMeCha][Sar][hPhe(3-Cl-4-CF3)]L[NMeAib]L[NMedβ3hAla][NMeL]I[Sar])) | > 500 |
| CC[C@H](C)[C@@H]1NC(=O)[C@H](CC(C)C)N(C)C(=O)C[C@@H](C)NC(=O)[C@H](CC2CCC2)N(C)C(=O)C2(CCCC2)NC(=O)[C@@H]2CCCN2C(=O)[C@H](CCc2ccc(C(F)(F)F)c(Cl)c2)NC(=O)CN(C)C(=O)[C@H](CC2CCCCC2)N(C)C(=O)CN(C)C(=O)CN(C)C1=O [Compound 59] (cyclo([Ac5c][NMeCba][d(β3hA)][NMeL]I[Sar][Sar][NMeCha][Sar][hPhe(3-Cl-4-CF3)]P)) | > 500 |
| CC[C@H](C)[C@@H]1NC(=O)[C@H](CC(C)C)N(C)C(=O)C[C@@H](C(=O)N2CCCCC2)N(C)C(=O)[C@H](C2CCCCC2)N(C)C(=O)C2(CCCC2)NC(=O)[C@H](Cc2cccnc2)N(C)C(=O)[C@H](CCc2ccc(C(F)(F)F)c(Cl)c2)NC(=O)CN(C)C(=O)[C@H](CC2CCCCC2)N(C)C(=O)CN(C)C(=O)CN(C)C1=O [Compound 63] ([NMeL]I[Sar][Sar][NMeCha][Sar][hPhe(3-Cl-4-CF3)][NMe3Pal][Ac5c][NMeChg][NMeD]-Piperidide; lactam N-11) | > 500 |
| CC[C@H](C)[C@@H]1NC(=O)[C@H](CC(C)C)N(C)C(=O)C[C@@H](C(=O)N(C)C)N(C)C(=O)[C@H]([C@@H](C)CC)N(C)C(=O)C2(CCCC2)NC(=O)[C@@H](C)NC(=O)[C@H](CCc2ccc(C(F)(F)F)c(Cl)c2)NC(=O)CN(C)C(=O)[C@H](Cc2ccc(C)cc2)N(C)C(=O)[C@@H]2CCN2C(=O)[C@H](C)N(C)C1=O [Compound 67] ([NMeL]I[NMeA][Aze][NMePhe(4-Me)][Sar][hPhe(3-Cl-4-CF3)][dA][Ac5c][NMeI][NMeD]-NMe2; lactam N-11) | > 500 |
| CC[C@H](C)[C@@H]1NC(=O)[C@H](C)N(C)C(=O)C[C@@H](C)NC(=O)[C@H](C(C)C)N(C)C(=O)[C@H](Cc2ccccc2)N(C)C(=O)[C@H](CC(C)C)N(C)C(=O)[C@H](CCc2ccc(C(F)(F)F)cc2)NC(=O)CN(C)C(=O)[C@H](Cc2ccc(Cl)cc2)N(C)C(=O)CN(C)C(=O)[C@@H]2CCN2C1=O [Compound 71] (cyclo([Aze][Sar][NMePhe(4-Cl)][Sar][hPhe(4-CF3)][NMeL][NMeF][NMeV][d(β3hA)][NMeA]I)) | > 500 |
| CC[C@H](C)[C@@H]1NC(=O)[C@H](CC(C)C)N(C)C(=O)C[C@@H](C)NC(=O)[C@H](C(C)C)N(C)C(=O)C2(CCCC2)NC(=O)[C@@H]2CCCN2C(=O)[C@H](CCc2ccc(C(F)(F)F)c(Cl)c2)NC(=O)CN(C)C(=O)[C@H](CC2CCC2)N(C)C(=O)CN(C)C(=O)CN(C)C1=O [Compound 75] (cyclo([Ac5c][NMeV][d(β3hA)][NMeL]I[Sar][Sar][NMeCba][Sar][hPhe(3-Cl-4-CF3)]P)) | > 500 |
| CC[C@H](C)[C@@H]1NC(=O)[C@H](CC(C)C)N(C)C(=O)C[C@@H](C)NC(=O)[C@H](C(C)C)N(C)C(=O)C2(CCCC2)NC(=O)[C@@H]2CCCN2C(=O)[C@H](CCc2ccc(C(F)(F)F)c(Cl)c2)NC(=O)[C@H]2CCCN2C(=O)[C@H](CC2CCCCC2)N(C)C(=O)CN(C)C(=O)CN(C)C1=O [Compound 76] (cyclo([Ac5c][NMeV][d(β3hA)][NMeL]I[Sar][Sar][NMeCha][dP][hPhe(3-Cl-4-CF3)]P)) | > 500 |
| CC(C)C[C@H]1C(=O)N[C@@H](CCCCC(F)F)C(=O)N(C)CC(=O)N(C)CC(=O)N(C)[C@@H](CC2CCCCC2)C(=O)N(C)CC(=O)N[C@@H](CCc2ccc(C(F)(F)F)c(Cl)c2)C(=O)N2CCC[C@H]2C(=O)NC2(CCCC2)C(=O)N(C)[C@@H](C2CCCCC2)C(=O)N(C)[C@H](C(=O)N2CCCCC2)CC(=O)N1C [Compound 92] ([NMeL][hNle(7,7-F2)][Sar][Sar][NMeCha][Sar][hPhe(3-Cl-4-CF3)]P[Ac5c][NMeChg][NMeD]-Piperidide; lactam N-11) | > 500 |
| CC[C@H](C)[C@@H]1NC(=O)[C@H](C)N(C)C(=O)C[C@@H](C)NC(=O)[C@H](C(C)C)N(C)C(=O)C(C)(C)N(C)C(=O)[C@@H]2CCCN2C(=O)[C@H](CCc2ccc(C(F)(F)F)c(Cl)c2)NC(=O)CN(C)C(=O)[C@H](CC2CCCCC2)N(C)C(=O)CN(C)C(=O)CN(C)C1=O [Compound 93] (cyclo(I[Sar][Sar][NMeCha][Sar][hPhe(3-Cl-4-CF3)]P[NMeAib][NMeV][d(β3hA)][NMeA])) | > 500 |
